{
  "source": "patent US20170106067A1",
  "about": "“COMBINATORIAL IMMUNOTHERAPY FOR PANCREATIC CANCER TREATMENT” (THE JOHNS HOPKINS UNIVERSITY, priority 2014, published 2017)",
  "origin": "cited, not measured here",
  "system": "metastatic PDA",
  "conditions": "Le et al., 2013",
  "data": [
    {"substance": "ipilimumab", "values": [
      {"measurement": "clinical anti tumor activity in metastatic PDA patients", "value": "failed to demonstrate durable and effective anti tumor activity"}
    ]}
  ]
}
